{
  "source": "patent US20220088016A1",
  "about": "“CANCER TREATMENT USING MULTI-TARGETED KINASE INHIBITOR IN COMBINATION OF PROTEIN KINASE BIOMARKERS” (ZHEJIANG CROWNMAB BIOTECH CO. LTD., priority 2019, published 2022)",
  "key": {"RIPK2": {"target": "RIPK2 (Homo sapiens, UniProt O43353)", "sequence (O43353 whole entry)": "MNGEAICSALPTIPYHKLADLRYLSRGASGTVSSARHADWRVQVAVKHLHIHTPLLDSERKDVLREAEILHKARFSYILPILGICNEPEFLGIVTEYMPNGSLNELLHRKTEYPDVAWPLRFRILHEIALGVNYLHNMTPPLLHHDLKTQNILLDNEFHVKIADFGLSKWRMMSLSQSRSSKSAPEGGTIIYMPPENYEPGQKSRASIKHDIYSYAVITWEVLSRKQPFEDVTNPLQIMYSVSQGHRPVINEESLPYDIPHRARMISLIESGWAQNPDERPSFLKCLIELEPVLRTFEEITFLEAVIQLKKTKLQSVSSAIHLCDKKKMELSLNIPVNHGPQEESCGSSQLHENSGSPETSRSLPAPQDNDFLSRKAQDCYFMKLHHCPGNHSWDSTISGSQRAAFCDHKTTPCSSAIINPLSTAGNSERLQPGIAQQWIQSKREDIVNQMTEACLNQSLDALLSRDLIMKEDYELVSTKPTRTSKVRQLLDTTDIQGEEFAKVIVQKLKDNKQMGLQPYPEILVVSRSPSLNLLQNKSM", "assay": "Kinase profiling", "assay_type": "binding", "details": "read-out: % Ctrl @ 1000 nM"}, "MINK": {"target": "T1, MINK (Homo sapiens, UniProt Q8N4C8)", "T1 construct": "T7 phage fusion (stated for most kinases of the panel only); made in house; host or cells: T7 phage in E. coli (BL21-derived) or HEK-293 cells", "T1 sequence (Q8N4C8 whole entry, the tested form may be a part)": "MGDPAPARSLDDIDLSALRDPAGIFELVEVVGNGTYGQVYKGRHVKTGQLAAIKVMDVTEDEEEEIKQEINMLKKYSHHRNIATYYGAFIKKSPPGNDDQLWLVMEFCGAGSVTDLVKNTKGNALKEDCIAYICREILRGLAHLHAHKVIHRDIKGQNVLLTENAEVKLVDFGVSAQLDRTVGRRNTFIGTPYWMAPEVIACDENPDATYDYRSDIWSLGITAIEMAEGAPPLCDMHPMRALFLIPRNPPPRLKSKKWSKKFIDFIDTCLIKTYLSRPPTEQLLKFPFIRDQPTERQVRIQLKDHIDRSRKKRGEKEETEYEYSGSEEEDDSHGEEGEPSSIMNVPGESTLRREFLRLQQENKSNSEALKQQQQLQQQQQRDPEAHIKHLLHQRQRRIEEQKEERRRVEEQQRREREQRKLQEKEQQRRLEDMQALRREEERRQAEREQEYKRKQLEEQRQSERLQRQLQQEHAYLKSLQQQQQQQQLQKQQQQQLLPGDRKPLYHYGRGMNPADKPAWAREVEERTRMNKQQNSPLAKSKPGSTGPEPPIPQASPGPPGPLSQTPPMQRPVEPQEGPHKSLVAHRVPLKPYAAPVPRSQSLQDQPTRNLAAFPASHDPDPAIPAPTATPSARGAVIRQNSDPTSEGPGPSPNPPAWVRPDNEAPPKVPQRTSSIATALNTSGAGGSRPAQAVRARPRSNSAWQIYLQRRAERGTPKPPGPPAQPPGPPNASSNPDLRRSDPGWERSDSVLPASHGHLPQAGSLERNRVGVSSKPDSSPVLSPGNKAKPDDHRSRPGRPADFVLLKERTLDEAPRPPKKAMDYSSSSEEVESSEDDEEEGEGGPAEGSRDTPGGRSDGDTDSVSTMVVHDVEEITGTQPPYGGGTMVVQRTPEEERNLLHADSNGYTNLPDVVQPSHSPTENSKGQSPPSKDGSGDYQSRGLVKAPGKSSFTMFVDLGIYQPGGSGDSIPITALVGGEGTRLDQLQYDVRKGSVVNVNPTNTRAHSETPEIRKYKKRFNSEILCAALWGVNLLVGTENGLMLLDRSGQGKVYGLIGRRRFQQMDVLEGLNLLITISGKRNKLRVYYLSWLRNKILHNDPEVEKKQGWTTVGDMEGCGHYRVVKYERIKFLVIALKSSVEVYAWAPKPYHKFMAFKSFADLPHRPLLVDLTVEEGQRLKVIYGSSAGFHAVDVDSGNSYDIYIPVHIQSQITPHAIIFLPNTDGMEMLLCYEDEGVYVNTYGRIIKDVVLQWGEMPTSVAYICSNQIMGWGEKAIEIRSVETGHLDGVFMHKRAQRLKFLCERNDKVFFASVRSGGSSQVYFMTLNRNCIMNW", "assay": "Kinase profiling", "assay_type": "binding", "details": "read-out: % Ctrl @ 1000 nM"}},
  "data": [
    {"smiles": "Cc1cc(Oc2cc(NC(=O)C3CC3)ncn2)ccc1NC(=O)Nc1ccc(Cl)c(C(F)(F)F)c1", "note": "[CBT-102]", "values": [
      {"measurement": "remaining activity at 1 µM", "setting": "RIPK2", "result": 28, "unit": "%"},
      {"measurement": "remaining activity at 1 µM", "setting": "MINK", "result": 35, "unit": "%"}
    ]}
  ]
}
